10 compounds from PubChem BioAssay (NCI) can be followed below.

Among the test systems are KM12 colon; CCRF-CEM leukemia; HCC-2998 colon; UACC-62 melanoma; K-562 leukemia; SF-268 CNS; A498 renal; NCI-H226 lung; SW-620 colon; UACC-257 melanoma.
Holding throughout (experiment): growth of human tumour cells (NCI), 48 h

Where “and” joins values, the source holds several entries; their conditions need not be identical. Equal values may be shown once.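 Following 48 hours of exposure in 96-well plates, responses at five concentrations were used to interpolate endpoints linearly. The concentration for 50% growth inhibition is given as GI50. At the TGI there is no net growth.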

Turning to `C/C(=C1/N=C(c2cc([N+](=O)[O-])ccc2Cl)N(c2ccc(Br)cc2)C1=O)c1ccc(N(CCC#N)CCC#N)cc1C`, the TGI in the assay on KM12 colon was > 100 µM; in the assay on CCRF-CEM leukemia, 32.7 µM; in the assay on HCC-2998 colon, 72.1 µM; in the assay with UACC-62 melanoma, 97.5 µM; in the assay on K-562 leukemia, 29.3 µM; in the assay with SF-268 CNS, > 100 µM. Moreover, the TGI with A498 renal is 96.4 µM; with NCI-H226 lung, > 100 µM; with SW-620 colon it was 25.5 µM; in the assay with UACC-257 melanoma, > 100 µM.

With `Cc1ccccc1/C=C/c1csnn1`, the TGI in the assay on KM12 colon was > 100 µM; in the assay with CCRF-CEM leukemia, > 100 µM; in the assay with HCC-2998 colon, > 100 µM; in the assay on UACC-62 melanoma it was > 100 µM; with K-562 leukemia, > 100 µM; with SF-268 CNS, > 71.4 µM. Further, the TGI was > 100 µM in the assay on A498 renal, > 100 µM in the assay on NCI-H226 lung, > 79.9 µM in the assay on SW-620 colon and > 100 µM in the assay on UACC-257 melanoma.

Consider `Cc1noc2cccc(O)c12`, for which the TGI in the assay with KM12 colon, with CCRF-CEM leukemia, in the assay on HCC-2998 colon, in the assay on UACC-62 melanoma, with K-562 leukemia and in the assay with SF-268 CNS was > 100 µM throughout. Also, the TGI in the assay on A498 renal, in the assay with NCI-H226 lung, with SW-620 colon and in the assay with UACC-257 melanoma was > 100 µM in each case.

For `CCOC(=O)/C(=C/CC/C(C)=C/CC/C(C)=C/CCc1ccoc1)CC(=O)N1CCCCC1`, the GI50 is 4.59 µM with KM12 colon; 3.56 µM in the assay with CCRF-CEM leukemia; 3.93 µM in the assay with HCC-2998 colon; 2.8 µM in the assay on UACC-62 melanoma; 3.91 µM in the assay on K-562 leukemia; 8.91 µM in the assay with SF-268 CNS. The GI50 in the assay with A498 renal is 1.27 µM; in the assay with NCI-H226 lung, 4.48 µM; in the assay on SW-620 colon it was 4.8 µM; with UACC-257 melanoma, 2.29 µM. The TGI came out at 19.2 µM in the assay with KM12 colon; 22.5 µM in the assay on CCRF-CEM leukemia; 14.3 µM with HCC-2998 colon; 12.7 µM with UACC-62 melanoma; 96 µM with K-562 leukemia; 38.3 µM in the assay with SF-268 CNS. Besides, the TGI worked out at 3.08 µM in the assay with A498 renal, 19.4 µM with NCI-H226 lung, 19.2 µM with SW-620 colon and 7.41 µM with UACC-257 melanoma.

Regarding `Oc1ccc(NC(=S)Nc2ccccc2)cc1`, the GI50 in the assay with KM12 colon, in the assay on CCRF-CEM leukemia, with HCC-2998 colon, with UACC-62 melanoma, in the assay with K-562 leukemia and with SF-268 CNS was > 100 µM in each case. For the same compound, the GI50 with A498 renal, with NCI-H226 lung, in the assay on SW-620 colon and in the assay with UACC-257 melanoma was > 100 µM throughout. Besides, the TGI with KM12 colon, in the assay on CCRF-CEM leukemia, with HCC-2998 colon, in the assay on UACC-62 melanoma, in the assay on K-562 leukemia and with SF-268 CNS was > 100 µM throughout. Further, the TGI in the assay with A498 renal, in the assay with NCI-H226 lung, with SW-620 colon and with UACC-257 melanoma was > 100 µM each time.

With `COC(=O)C(=O)C(CC(=O)Nc1cc(Cl)ccc1Cl)C(=O)OC` (centres undefined), the TGI in the assay on KM12 colon, in the assay with CCRF-CEM leukemia, with HCC-2998 colon, with UACC-62 melanoma, with K-562 leukemia and with SF-268 CNS was > 100 µM throughout. Also, the TGI with A498 renal, in the assay with NCI-H226 lung, in the assay on SW-620 colon and in the assay with UACC-257 melanoma was > 100 µM each time.

Regarding `CC[C@@]1(O)C(=O)OCc2c1cc1n(c2=O)Cc2cc3cc(Cl)ccc3nc2-1`, the GI50 is 0.0485 µM and 0.127 µM in the assay on KM12 colon; 0.0277 µM and 0.0364 µM in the assay on HCC-2998 colon; 0.00183 µM with UACC-62 melanoma; 0.00916 µM and 0.0873 µM in the assay on K-562 leukemia; 0.00403 µM in the assay on SF-268 CNS; 0.00878 µM and 0.0517 µM in the assay with A498 renal. Besides, the GI50 was 0.00345 µM in the assay on NCI-H226 lung; 0.0389 µM and 0.0857 µM with UACC-257 melanoma. For the same compound, the TGI in the assay on KM12 colon is 0.195 µM and 0.446 µM; with CCRF-CEM leukemia it was > 100 µM; in the assay on HCC-2998 colon, 0.202 µM and 0.32 µM; in the assay on K-562 leukemia it was > 100 µM; in the assay on A498 renal, 0.132 µM and 0.221 µM; in the assay with NCI-H226 lung, 0.108 µM and 0.117 µM. Moreover, the TGI in the assay with SW-620 colon is 2.37 µM and 5.23 µM; with UACC-257 melanoma it was 0.953 µM and 1.11 µM.

Regarding `OCC#CCOCC#Cc1ccccc1C#CCOCC#CCO`, the GI50 was 35.1 µM in the assay on KM12 colon; 18.5 µM with CCRF-CEM leukemia; 29 µM in the assay with HCC-2998 colon; 25.8 µM in the assay with UACC-62 melanoma; 27 µM in the assay with K-562 leukemia; 36.9 µM in the assay on SF-268 CNS. Also, the GI50 in the assay on A498 renal is 58.7 µM; in the assay on NCI-H226 lung, 41.4 µM; in the assay on SW-620 colon, 58.9 µM; in the assay with UACC-257 melanoma, 35.5 µM. Moreover, the TGI is > 100 µM with KM12 colon; 57.1 µM in the assay on CCRF-CEM leukemia; 75.3 µM with HCC-2998 colon; 75.1 µM in the assay on UACC-62 melanoma; 90 µM with K-562 leukemia; > 100 µM in the assay on SF-268 CNS. The TGI in the assay on A498 renal, in the assay with NCI-H226 lung, with SW-620 colon and in the assay with UACC-257 melanoma was > 100 µM throughout.

For `Nc1cn(C2OC(CC(c3ccccc3)(c3ccccc3)c3ccccc3)C(O)C2O)c(=O)[nH]c1=O` (centres undefined), the TGI was > 100 µM in the assay on KM12 colon; 63.1 µM with CCRF-CEM leukemia; 64.4 µM in the assay on HCC-2998 colon; 28.5 µM with UACC-62 melanoma; 54.4 µM with K-562 leukemia; > 100 µM in the assay on SF-268 CNS. The TGI with A498 renal is 95.5 µM; with NCI-H226 lung, > 100 µM; with SW-620 colon, 28 µM; with UACC-257 melanoma, 52.3 µM.

Regarding `CC(=O)Nc1ccccc1-c1nc2ccccc2nc1-c1ccccc1`, the TGI with KM12 colon, in the assay on CCRF-CEM leukemia, in the assay with HCC-2998 colon, in the assay on UACC-62 melanoma, with K-562 leukemia and in the assay with A498 renal was > 100 µM throughout. The TGI with SW-620 colon and in the assay on UACC-257 melanoma was > 100 µM throughout.
